Where two headings read alike, the source gives them in different places. Marks after values point to notes of the source that are not given here. Values belong to the molecule of their own block, whether it stands above or below them.
Key:
[1] = In vivo conversion of prodrug to 1H pyrazol compound (serum); details: in the serum mainly only the final active ingredient (CRCV-340) can be proven
Text: Also covered are pro pharmacons (prodrugs) of the compounds, especially those which are characterized by a substituent on the pyrazol heteroatom in position 1. It has been shown that such types of compounds are converted in vivo to the 1H pyrazol compound. As an example, compounds have been mentioned in respect of which the pyrazol heteroatom in position 1 is substituted by an imino(phenyl)methyl substituent, such as, for example, 1-[Imino(phenyl)methyl]-4-amino-3-(4-trifluormethyl-phenyl)amino-6-phenylpyrazolo[3,4-d]pyrimidine, also designated by the IUPAC name 1-benzylcarboximidoyl-6-phenyl-3-N-[4-(trifluormethyl)phenyl]-1H-pyrazolo[3,4-d]-pyrimidine-3,4-diamine. Here this relates to a by-product of the manufacture of the compound described above, CRCV-340, resulting from the reaction of the compound CRCV-340 with an excess of benzamidine in the reaction mixture and having the following formula: […]
Also included are the salts, solvates or solvates of the salts produced by the above compounds. Within the scope of this invention the preferred salts are physiologically harmless salts of the compounds relating to the invention. […]

plasma protein = test: Plasma protein binding and release in vitro (ADMET); type: in vitro ADME
Text: (§1) Objective: To investigate the Absorption, Distribution, Metabolism, Excretion and Toxicity (abbreviated as: ADMET) of OBR 5-340 in vitro, as well as in vitro tests on the plasma protein binding and the stability in the plasma and in liver microsomes. Tests: The In vitro tests performed with CRCV-340 as well as the data obtained are summarised in Table 2 in comparison with Ref. 2.

[2] = Plasma stability in vitro (ADMET); type: in vitro ADME
Text: as §1

[3] = Stability in liver microsomes in vitro (ADMET); type: in vitro ADME
Text: as §1

[4] = Pharmacokinetics in mice, single per os application, HPLC of plasma; type: in vivo
Description: Tests: Substance and reference substance were applied respectively once in a concentration of 100 mg/kg KG, in 0.5 ml of a 10% Cremophor solution per os to the mice, After 0.5, 1, 2, 3, 4, 5, 6 and 7 hrs serum was taken and by means of HPLC analysis the concentrations of CRCV-340, Ref-2 and Ref-3 determined in the plasma of the mice.
Using the substance concentrations in the blood plasma determined by HPLC the pharmacokinetic parameters of the substances were calculated using the computer program ESTRIP (Table 3).

[5] = Acute toxicity in mice after single peroral administration; type: in vivo
Description: Tests: The acute toxicity of the substance CRCV-340 was tested in mice 19.5-20.5 g in weight, which was administered per os 40, 60, 80 or 120 mg substance/mouse (per 5 mice per substance and concentration). This corresponds to a dose of approx. 2 g, 3 g, 4 g or 6 g per kilogramme body weight. The toxic effects observed in the result correlated to the substance dose administered.

[6] = Subacute toxicity in mice over 28 days, intragastric; type: in vivo; details: mice, 12.5, 50 or 200 mg/kg once a day over 28 days
Description: Objective: To determine the subacute toxicity in mice in order to reveal possible side effects e.g. on general condition, weight, internal organs and metabolism, which could arise with subacute administration of CRCV-340 over 28 days.
Tests: Thus male and female mice weighing approx. 20 g received 12.5, 50 or 200 mg/kg of the substance CRCV-340 in a Cremophor formulation or the control group received Cremophor once a day over 28 days intragastrically administered via a tube. During the total period of the experiment the condition of the coat and the mucous membranes, the excreta and the general condition were assessed. The recording of the weight took place on days 7, 14, 21 and 28. Approx. 24 hrs. after the last substance dose the sense of direction of the animals was examined. The following biochemical parameters in the serum were analysed: protein content, urea, creatinine, the serum activity of aspartate aminotransferase, alanine aminotransferase and alkaline phosphatase. The haemoglobin concentration, hematocrit, the number of red and white blood cells as well as the platelets was determined in the blood smear. At the end of the experiment the mice were killed under anaesthetic and dissected, the condition of the internal organs were assessed macroscopically, the organ weight determined and samples for subsequent histological tests put into formalin.

[7] = test system: human rhinovirus serotypes (HRV); test: zpE (cytopathic effect) inhibitory test with HRV serotypes; type: cell-based; details: for IC50: Human rhinovirus sp.
Text: (§2) Objective: To determine the antiviral effective spectrum of CRCV-340 in respect of 50 different human rhinovirus serotypes and CVB3 patient isolates.
(§3) Tests: The 50 HRV serotypes and 20 clinical CVB3 isolates were reproduced in HeLa, HeLa Wis and/or LF cells, their titre determined and the serotype verified using sequencing. Accordingly zpE (zytopathic effect) inhibitory tests with the HRV or plaque-reductions tests with the CVB3 isolates were established. In the corresponding antiviral tests dose effect investigations with Ref-3 and CRCV-340 were carried out. Tables 5 and 6 give an overview of the mean 50% inhibitory concentrations.

clinical CVB3 isolates = test: Plaque-reduction test with clinical CVB3 isolates; type: cell-based; details: for IC50: Enterovirus B, CVB3
Text: as §2, §3

CVB3 31-1-93 [8] = test: Mouse model of CVB3-induced chronic myocarditis; type: in vivo; details: CVB3 31-1-93-infected NMRI mice, 100 mg/kg once or twice a day over 7 days
Description: Investigations: The effect of CRCV-340 was investigated in the model of CVB 3-induced myocarditis in 8-week old male NMRI mice. In addition CVB3 31-1-93 or CVB3 H3-infected animals received once or twice a day 100 mg/kg of the substance in 50% or 20% PEG-400 in 1% CMC in water (placebo) administered over 7 days. Parameters to evaluate the therapeutic effect included changes in body weight, general condition, virus titre in heart and pancreas tissue as well as histopathological changes in the heart and pancreas. Pseudo-infected, placebo-treated or CRCV-340-treated animals served as a negative control and infected, placebo- or pleconaril-treated animals as a positive control over the course of the infection.

CVB3 31-1-93 [9] = test: Lethal mouse model of CVB3-induced myocarditis; type: in vivo; details: CVB3 31-1-93-infected BALB/c mice, 100 mg/kg twice a day over 7 days
Description: Investigations: The effect of the development candidate CRCV-340 was examined following testing of the infection dose in the model of the CVB 3-induced myocarditis in 6-7 weeks old male BALB/c mice. In addition CVB3 31-1-93 or CVB3 H3-infected animals received twice a day 100 mg/kg of the substance in 20% PEG-400 in 1% CMC in water (placebo) administered over 7 days. Changes in body weight, general condition and the lethality defined through the surrogate marker 25% loss of body weight served as parameters to evaluate the therapeutic effect. Pseudo-infected, placebo-treated or CRCV-340-treated animals represented the negative control and infected, placebo- or pleconaril-treated animals the positive control over the course of the infection.

[10] = mice, single intragastric 100 mg/kg

Compound: N=C(c1ccccc1)n1nc(Nc2ccc(C(F)(F)F)cc2)c2c(N)nc(-c3ccccc3)nc21 [CRCV-340 prodrug, 1-[Imino(phenyl)methyl]-4-amino-3-(4-trifluormethyl-phenyl)amino-6-phenylpyrazolo[3,4-d]pyrimidine]
Conversion in vivo into the target compound [1]: very easily converted into the target compound

Compound: Nc1nc(-c2ccccc2)nc2[nH]nc(Nc3ccc(C(F)(F)F)cc3)c12 [CRCV-340, 4-amino-3-(4-trifluormethyl-phenyl)amino-6-phenylpyrazolo[3,4-d]pyrimidine]
Release of plasma protein, comparison in words (plasma protein; in comparison with Ref-2): increased release of plasma protein | Binding to plasma protein (plasma protein; in vitro): 96.7% | Release of plasma protein (plasma protein; in vitro): 122.3% | Plasma stability [2]: 100.0% | Stability in liver microsomes, comparison in words ([3]; compared with Ref-2 / state-of-the-art substances): better stability in liver microsomes | Stability in liver microsomes ([3]; in vitro): 112.0% | Bioavailability in mice, comparison in words ([4]; compared with Ref-2 and Ref-3 / state-of-the-art substances): significantly better bioavailability | Cmax (maximum concentration in the blood) [4, 10]: 1254.4 ng/mL | MRT (mean residence time) [4, 10]: 3.54 h | half-life ([4]; mouse, in vivo, po, mice, single intragastric 100 mg/kg, read-out: T1/2 (half life) (converted)): 3.54 h | AUC(0-inf) ([4]; mouse, plasma, po, mice, single intragastric 100 mg/kg, read-out: AUC0-∞ (area under curve)): 9600 ng·h/mL | Tmax ([4]; mouse, plasma, po, mice, single intragastric 100 mg/kg, read-out: Tmax (time to reach the maximum concentration in the blood)): 3 h | LD50 at 72 h ([5]; mouse, in vivo, single peroral administration): 3120 mg/kg | LD50 ([5]; single peroral administration): 62.4 mg/mouse | Dead/Surviving 72 hrs after administration ([5]; single peroral dose 40 mg/mouse): 1/5 | Dead/Surviving 72 hrs after administration ([5]; single peroral dose 60 mg/mouse): 1/5 | Dead/Surviving 72 hrs after administration ([5]; single peroral dose 80 mg/mouse): 3/5 | Dead/Surviving 72 hrs after administration ([5]; single peroral dose 120 mg/mouse): 5/5 | Tolerance on subacute administration [6]: extremely good tolerance | Effective spectrum in respect of HRV in comparison to Ref-3 ([7]; 50 HRV serotypes): significantly broader | IC50 ([7]; read-out: IC50 Pleconaril-resistant HRV (n = 5), mean): 22.6 µM | IC50 ([7]; read-out: IC50 Pleconaril-sensitive HRV (n = 45), mean): 26.1 µM | IC50 ([7]; read-out: IC50 all HRV (n = 50), mean): 25.7 µM | Number of sensitive HRV ([7]; of 50 examined serotypes): 49 | IC50 (clinical CVB3 isolates; mean over 19 pleconaril-sensitive isolates, read-out: IC50 Pleconaril-sensitive CVB3 (n = 19), mean): 5.16 µM | IC50 (clinical CVB3 isolates; mean over all 20 clinical isolates, read-out: IC50 all CVB3 (n = 20), mean): 4.97 µM | IC50 (clinical CVB3 isolates; the one pleconaril-resistant isolate, read-out: IC50 Pleconaril-resistant CVB3 (n = 1)): 1.39 µM | Number of sensitive CVB3 (clinical CVB3 isolates; of 20 clinical isolates, CRCV-340 maximum tested concentration 13.5 μM): 18* | Therapeutic effect (body weight, general condition, virus titre in heart and pancreas, histopathology) (CVB3 31-1-93 [8]): effective | Therapeutic effect (body weight, general condition, lethality) (CVB3 31-1-93 [9]): effective

Compound: Nc1nc(-c2cc(C(F)(F)F)cc(C(F)(F)F)c2)nc2[nH]nc(Nc3ccc(Cl)cc3)c12 [MS-115]
melting point: 272 to 274 °C

The remaining lines, values ahead:

melting point: 271 to 273 °C
Compound: Nc1nc(-c2ccccc2C(F)(F)F)nc2[nH]nc(Nc3ccc(Cl)cc3)c12 [MS-116]

melting point: 230 to 232 °C
Compound: Nc1nc(-c2cccc(C(F)(F)F)c2)nc2[nH]nc(Nc3ccccc3)c12 [MS-117]
